The molecules below were run on SR cells (NPM-ALK, human anaplastic large cell lymphoma cells) (assay: Proliferation inhibition (IC50) in SR cells, CCK8 (WST) reagent). Details: 72 h, SR cells, WST reagent, 72 hours, read-out: IC50 (half inhibitory concentration), Brigatinib series in lymphoma cell lines.
Assay type: cell-based
Description: The ALK gene rearrangement positive cell line used was SR cells (NPM-ALK, human anaplastic large cell lymphoma cells). MDA-MB231 was a triple-negative breast cancer cell. Both SR cells and MDA-MB231 cells were purchased from ATCC.
The tumor cell line used was daily cultured in a 37° C. incubator containing 5% CO2. The medium was RPMI1640 supplemented with 10% FCS and Penicillin-Streptomycin.
The IC50 of the compound of the present disclosure was determined using Promega's Cell Titer Blue, Cell Titer GLO or commercially available WST reagents. The specific steps were as follows: the cells were seeded in a 96-well plate containing 100 microliters of RPMI medium containing serum at a number of 2000 cells/well. On the second day, the original drug and the compound of the present disclosure were serially diluted and added to the cells. After 72 hours of treatment with the compound of the present disclosure, the cell activity detection reagent was added to the culture medium for cell activity determination according to the instructions. The negative control was DMSO, and the positive control was the original drug, and the cells were treated in the same manner as the compound of the present disclosure. The growth inhibition of the compounds of the present disclosure on cells was plotted by Prism Graphpad software and the IC50 of the compounds of the present disclosure was counted from it.
We conducted dose-dependent experiments on the designed and synthesized compounds of the present disclosure in SR cells. […] The cells were treated with different concentrations of compounds (starting at 10 μM, 3 times dilution factor, 10 concentrations). After 72 hours, the cells were detected using CCK8 reagent (WST).

Compound	IC50 [nM]
COc1cc(N2CCC(N3CCN(CCCCCC#Cc4cccc5c4CN(C4CCC(=O)NC4=O)C5=O)CC3)CC2)ccc1Nc1ncc(Cl)c(Nc2ccccc2P(C)(C)=O)n1 (stereo not shown) [SIAIS293015, 3-(4-(7-(4-(1-(4-((5-chloro-4-((2-(dimethylphosphono)phenyl)amino)pyrimidin-2-yl)amino)-3-methoxyphenyl)piperidin-4-yl)piperazin-1-yl)hept-1-yn-1-yl)-1-oxoisoindolin-2-yl)piperidine-2,6-dione]	1.2
COc1cc(N2CCC(N3CCN(C(=O)COc4cccc5c4C(=O)N(C4CCC(=O)NC4=O)C5=O)CC3)CC2)ccc1Nc1ncc(Cl)c(Nc2ccccc2P(C)(C)=O)n1 (stereo not shown) [SIAIS293016, 4-(2-(4-(1-(4-((5-chloro-4-((2-(dimethylphosphono)phenyl)amino)pyrimidin-2-yl)amino)-3-methoxyphenyl)piperidin-4-yl)piperazin-1-yl)-2-oxoethoxy)-2-(2,6-dioxopiperidin-3-yl)isoindoline-1,3-dione]	7.2
COc1cc(N2CCC(NCCCCCCSc3cccc4c3CN(C3CCC(=O)NC3=O)C4=O)CC2)ccc1Nc1ncc(Cl)c(Nc2ccccc2P(=O)(OC)OC)n1 (stereo not shown) [SIAIS293110, 3-(4-((6-((1-(4-((5-chloro-4-((2-(dimethylphosphono)phenyl)amino)pyrimidin-2-yl)amino)-3-methoxyphenyl)piperidin-4-yl)amino)hexyl)thio)-1-oxoisoindolin-2-yl)piperidine-2,6-dione]	0.33 ± 0.11
COc1cc(N2CCC(N3CCN(CCCC#Cc4cccc5c4C(=O)N(C4CCC(=O)NC4=O)C5=O)CC3)CC2)ccc1Nc1ncc(Cl)c(Nc2ccccc2P(C)(C)=O)n1 (stereo not shown) [SIAIS352010, 4-(5-(4-(1-(4-((5-chloro-4-((2-(dimethylphosphono)phenyl)amino)pyrimidin-2-yl)amino)-3-methoxyphenyl)piperidin-4-yl)piperazin-1-yl)pent-1-yn-1-yl)-2-(2,6-dioxopiperidin-3-yl)isoindoline-1,3-dione]	19 ± 5.8

Same assay, conditions: 72 h, read-out: IC50 (half inhibitory concentration), Alectinib series in lymphoma cell lines, SR cells, WST reagent, 72 hours

Compound	IC50 [nM]
CCc1cc2c(cc1N1CCC(N)CC1)C(C)(C)c1[nH]c3cc(C#N)ccc3c1C2=O [Alectinib derivative B (SIAIS184193), 8-(4-aminopiperidin-1-yl)-9-ethyl-6,6-dimethyl-11-oxo-6,11-dihydro-5H-benzo[b]carbazole-3-carbonitrile]	9.1 ± 5.5
CCc1cc2c(cc1N1CCC(N3CCNCC3)CC1)C(C)(C)c1[nH]c3cc(C#N)ccc3c1C2=O [Alectinib derivative C (SIAIS184192), 9-Ethyl-6,6-dimethyl-11-oxo-8-(4-(piperazin-1-yl)piperidin-1-yl)-6,11-dihydro-5H-benzo[b]carbazole-3-carbonitrile]	10.1 ± 4.3
CCc1cc2c(cc1N1CCC(N3CCN(C(=O)CCCNc4cccc5c4CN(C4CCC(=O)NC4=O)C5=O)CC3)CC1)C(C)(C)c1[nH]c3cc(C#N)ccc3c1C2=O (stereo not shown) [SIAIS262092, 8-(4-(4-(4-((2-(2,6-dioxopiperidin-3-yl)-1-oxoisoindolin-4-yl)amino)butyryl)piperazin-1-yl)piperidin-1-yl)-9-ethyl-6,6-dimethyl-11-oxo-6,11-dihydro-5H-benzo[b]carbazole-3-carbonitrile]	1.37 ± 0.87
CCc1cc2c(cc1N1CCC(N3CCN(C(=O)CCCCNc4cccc5c4CN(C4CCC(=O)NC4=O)C5=O)CC3)CC1)C(C)(C)c1[nH]c3cc(C#N)ccc3c1C2=O (stereo not shown) [SIAIS262093, 8-(4-(4-(5-((2-(2,6-dioxopiperidin-3-yl)-1-oxoisoindolin-4-yl)amino)pentanoyl)piperazin-1-yl)piperidin-1-yl)-9-ethyl-6,6-dimethyl-11-oxo-6,11-dihydro-5H-benzo[b]carbazole-3-carbonitrile]	2.65 ± 1.72
CCc1cc2c(cc1N1CCC(N3CCN(C(=O)CCCCCCNc4cccc5c4CN(C4CCC(=O)NC4=O)C5=O)CC3)CC1)C(C)(C)c1[nH]c3cc(C#N)ccc3c1C2=O (stereo not shown) [SIAIS262095, 8-(4-(4-(7-((2-(2,6-dioxopiperidin-3-yl)-1-oxoisoindolin-4-yl)amino)heptanoyl)piperazin-1-yl)piperidin-1-yl)-9-ethyl-6,6-dimethyl-1-oxo-6,11-dihydro-5H-benzo[b]carbazole-3-carbonitrile]	3.2 ± 1.93
CCc1cc2c(cc1N1CCC(N3CCN(CCCCC#Cc4cccc5c4CN(C4CCC(=O)NC4=O)C5=O)CC3)CC1)C(C)(C)c1[nH]c3cc(C#N)ccc3c1C2=O (stereo not shown) [SIAIS293002, 8-(4-(4-(6-(2-(2,6-dioxopiperidin-3-yl)-1-oxoisoindolin-4-yl)hex-5-yn-1-yl)piperazin-1-yl)piperidin-1-yl)-9-ethyl-6,6-dimethyl-11-oxo-6,11-dihydro-5H-benzo[b]carbazole-3-carbonitrile]	2.9
CCc1cc2c(cc1N1CCC(N3CCN(CCCCCCCC#Cc4cccc5c4CN(C4CCC(=O)NC4=O)C5=O)CC3)CC1)C(C)(C)c1[nH]c3cc(C#N)ccc3c1C2=O (stereo not shown) [SIAIS293004, 8-(4-(4-(9-(2-(2,6-dioxopiperidin-3-yl)-1-oxoisoindolin-4-yl)non-8-yn-1-yl)piperazin-1-yl)piperidin-1-yl)-9-ethyl-6,6-dimethyl-11-oxo-6,11-dihydro-5H-benzo[b]carbazole-3-carbonitrile]	9.5
CCc1cc2c(cc1N1CCC(N3CCN(CCCCc4cccc5c4CN(C4CCC(=O)NC4=O)C5=O)CC3)CC1)C(C)(C)c1[nH]c3cc(C#N)ccc3c1C2=O (stereo not shown) [SIAIS293005, 8-(4-(4-(4-(2-(2,6-dioxopiperidin-3-yl)-1-oxoisoindolin-4-yl)butyl)piperazin-1-yl)piperidin-1-yl)-9-ethyl-6,6-dimethyl-11-oxo-6,11-dihydro-5H-benzo[b]carbazole-3-carbonitrile]	1.9
CCc1cc2c(cc1N1CCC(N3CCN(CCCCCNc4cccc5c4C(=O)N(C4CCC(=O)NC4=O)C5=O)CC3)CC1)C(C)(C)c1[nH]c3cc(C#N)ccc3c1C2=O (stereo not shown) [SIAIS293008, 8-(4-(4-(5-((2-(2,6-dioxopiperidin-3-yl)-1,3-dioxoisoindolin-4-yl)amino)pentyl)piperazin-1-yl)piperidin-1-yl)-9-ethyl-6,6-dimethyl-11-oxo-6,11-dihydro-5H-benzo[b]carbazole-3-carbonitrile]	5.2
CCc1cc2c(cc1N1CCC(N3CCN(CCCCCCNc4cccc5c4C(=O)N(C4CCC(=O)NC4=O)C5=O)CC3)CC1)C(C)(C)c1[nH]c3cc(C#N)ccc3c1C2=O (stereo not shown) [SIAIS293009, 8-(4-(4-(6-((2-(2,6-dioxopiperidin-3-yl)-1,3-dioxoisoindolin-4-yl)amino)hexyl)piperazin-1-yl)piperidin-1-yl)-9-ethyl-6,6-dimethyl-11-oxo-6,11-dihydro-5H-benzo[b]carbazole-3-carbonitrile]	15.1
CCc1cc2c(cc1N1CCC(NC(=O)CCCCNc3cccc4c3CN(C3CCC(=O)NC3=O)C4=O)CC1)C(C)(C)c1[nH]c3cc(C#N)ccc3c1C2=O (stereo not shown) [SIAIS293012, N-(1-(3-cyano-9-ethyl-6,6-dimethyl-11-oxo-6,11-dihydro-5H-benzo[b]carbazol-8-yl)piperidin-4-yl)-5-((2-(2,6-dioxopiperidin-3-yl)-1-oxoisoindolin-4-yl)amino)pentanamide]	10.3 ± 5.1
CCc1cc2c(cc1N1CCC(N3CCN(CCCCCC#Cc4cccc5c4CN(C4CCC(=O)NC4=O)C5=O)CC3)CC1)C(C)(C)c1[nH]c3cc(C#N)ccc3c1C2=O (stereo not shown) [SIAIS293014, 8-(4-(4-(7-(2-(2,6-dioxopiperidin-3-yl)-1-oxoisoindolin-4-yl)hept-6-yn-1-yl)piperazin-1-yl)piperidin-1-yl)-9-ethyl-6,6-dimethyl-11-oxo-6,11-dihydro-5H-benzo[b]carbazole-3-carbonitrile]	3.2
CCc1cc2c(cc1N1CCC(N3CCN(CCCCSc4cccc5c4CN(C4CCC(=O)NC4=O)C5=O)CC3)CC1)C(C)(C)c1[nH]c3cc(C#N)ccc3c1C2=O (stereo not shown) [SIAIS293060, 8-(4-(4-(4-((2-(2,6-dioxopiperidin-3-yl)-1-oxoisoindolin-4-yl)thio)butyl)piperazin-1-yl)piperidin-1-yl)-9-ethyl-6,6-dimethyl-11-oxo-6,11-dihydro-5H-benzo[b]carbazole-3-carbonitrile]	0.1 ± 0.02
CCc1cc2c(cc1N1CCN(CCCCCc3cccc4c3CN(C3CCC(=O)NC3=O)C4=O)CC1)C(C)(C)c1[nH]c3cc(C#N)ccc3c1C2=O (stereo not shown) [SIAIS350081, 8-(4-(5-(2-(2,6-dioxopiperidin-3-yl)-1-oxoisoindolin-4-yl)pentyl)piperazin-1-yl)-9-ethyl-6,6-dimethyl-11-oxo-6,11-dihydro-5H-benzo[b]carbazole-3-carbonitrile]	6.5 ± 4
CCc1cc2c(cc1N1CCC(N3CCN(CCCCCc4cccc5c4CN(C4CCC(=O)NC4=O)C5=O)CC3)CC1)C(C)(C)c1[nH]c3cc(C#N)ccc3c1C2=O (stereo not shown) [SIAIS350083, 8-(4-(4-(5-(2-(2,6-dioxopiperidin-3-yl)-1-oxoisoindolin-4-yl)pentyl)piperazin-1-yl)piperidin-1-yl)-9-ethyl-6,6-dimethyl-11-oxo-6,11-dihydro-5H-benzo[b]carbazole-3-carbonitrile]	1.1 ± 0.7

Reference: US12390532B2, “ALK protein regulator and anti-tumor application thereof” (SHANGHAITECH UNIVERSITY, priority 2019, dated 2025)
